Key:
Assay in all cases: relative viability (nuclei count vs DMSO), 5 days (fraction); higher = more cells survive
kb NB 142-70 + Lapatinib = compound: C1CSC2=C(C(=O)N1)SC3=C2C=C(C=C3)O [kb NB 142-70] + CS(=O)(=O)CCNCc1ccc(-c2ccc3ncnc(Nc4ccc(OCc5cccc(F)c5)c(Cl)c4)c3c2)o1 [Lapatinib] (partner 2 µM)
Summary of the method: (§1)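 Lung cancer cell lines were pin-tool dosed in 1536-well plates on the day after seeding, with either a lone drug or a fixed anchor-drug dose plus five library-drug doses (not always all listed) in √10 steps. Nuclei were counted on 4× images after 5 days. Relative viability is the ratio of treated-well to vehicle-well nuclei counts, with each value a median of duplicate plates.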

[1] = compound: C1CSC2=C(C(=O)N1)SC3=C2C=C(C=C3)O [kb NB 142-70] + O=C(CCCCCCC(=O)Nc1ccccc1)NO [Vorinostat] (partner 1 µM)
Summary of the method: as §1

kb NB 142-70 + Olaparib = compound: C1CSC2=C(C(=O)N1)SC3=C2C=C(C=C3)O [kb NB 142-70] + O=C(c1cc(Cc2n[nH]c(=O)c3ccccc23)ccc1F)N1CCN(C(=O)C2CC2)CC1 [Olaparib] (partner 8 µM)
Summary of the method: as §1

[2] = compound: NCC(=O)Nc1ccc(-n2nc(C(F)(F)F)cc2-c2ccc3c(ccc4ccccc43)c2)cc1 + Cc1cc(Nc2cc(N3CCN(C)CC3)nc(Sc3ccc(NC(=O)C4CC4)cc3)n2)n[nH]1 [Tozasertib] (partner 0.1 µM)
Summary of the method: as §1

[3] = compound: NCC(=O)Nc1ccc(-n2nc(C(F)(F)F)cc2-c2ccc3c(ccc4ccccc43)c2)cc1 + Nc1ncn([C@H]2C[C@H](O)[C@@H](CO)O2)c(=O)n1 [Decitabine] (partner 2 µM)
Summary of the method: as §1

Cell Line	relative viability (kb NB 142-70 + Lapatinib; first compound 0.1 µM)	relative viability (kb NB 142-70 + Lapatinib; first compound 1 µM)	relative viability (kb NB 142-70 + Lapatinib; first compound 3.162 µM)	relative viability ([1]; first compound 0.1 µM)	relative viability ([1]; first compound 1 µM)	relative viability ([1]; first compound 3.162 µM)	relative viability (kb NB 142-70 + Olaparib; first compound 0.1 µM)	relative viability (kb NB 142-70 + Olaparib; first compound 1 µM)	relative viability (kb NB 142-70 + Olaparib; first compound 3.162 µM)	relative viability ([2]; first compound 0.02 µM)	relative viability ([2]; first compound 0.06325 µM)	relative viability ([2]; first compound 0.2 µM)	relative viability ([2]; first compound 0.6325 µM)	relative viability ([2]; first compound 2 µM)	relative viability ([3]; first compound 0.02 µM)	relative viability ([3]; first compound 0.06325 µM)	relative viability ([3]; first compound 0.2 µM)	relative viability ([3]; first compound 0.6325 µM)	relative viability ([3]; first compound 2 µM)
LXF-289	0.917	0.909	0.94	0.713	0.711	0.51	1.04	1.05	0.772	0.233	0.196	0.202	0.214	0.197	0.376	0.388	0.371	0.416	0.333
NCI-H23	1.23	0.872	0.413	0.703	0.583	0.298	0.314	0.318	0.241	0.332	0.453	0.314	0.358	0.369	0.32	0.357	0.317	0.311	0.324
NCI-H322M	0.568	0.646	0.617	0.942	1.06	0.926	0.777	0.795	0.621	0.54	0.461	0.517	0.491	0.517	0.723	0.732	0.716	0.637	0.724
NCI-H358	0.45	0.396	0.161	0.699	0.654	0.127	0.531	0.489	0.297	0.0971	0.102	0.12	0.0969	0.0967	0.217	0.211	0.224	0.206	0.217
NCI-H460	1.02	1.03	0.48	0.733	0.755	0.436	0.396	0.509	0.526	0.397	0.591	0.485	0.47	0.394	0.486	0.525	0.478	0.479	0.366
NCI-H520	0.826	0.848	0.464	0.775	0.681	0.304	0.377	0.35	0.228	0.492	0.425	0.402	0.424	0.398	0.562	0.546	0.505	0.449	0.587
NCI-H596	1.02	0.931	0.884	0.656	0.67	0.538	0.658	0.579	0.788	1	0.911	1.02	0.925	0.903	1.13	1.01	1.07	0.995	1.12
NCI-H647	1.11	1.08	0.836	0.716	0.597	0.492	0.549	0.495	0.539	0.286	0.314	0.425	0.233	0.254	0.44	0.436	0.423	0.436	0.301
NCI-H650	1.05	1.17	0.657	0.514	0.585	0.363	0.417	0.374	0.267	0.691	0.754	0.761	0.676	0.631	0.34	0.295	0.443	0.315	0.367
NCI-H661	0.511	0.478	0.492	0.761	0.755	0.767	0.731	0.733	0.759	0.37	0.343	0.356	0.362	0.341	0.507	0.592	0.524	0.579	0.572
NCI-H727	0.808	1.03	0.905	1.35	1.18	1.24	0.743	0.592	0.68	0.648	0.664	0.588	0.502	0.711	0.941	0.647	0.869	0.874	0.812
NCI-H838	0.934	0.913	1.03	0.782	0.77	0.778	0.73	0.787	0.739	0.264	0.35	0.299	0.285	0.291	0.489	0.494	0.504	0.441	0.335
NCI-H1355	0.993	0.943	1.07	0.605	0.643	0.657	0.818	0.744	0.775	0.558	0.657	0.574	0.57	0.57	0.371	0.362	0.403	0.408	0.347
NCI-H1395	1.23	1.14	0.816	0.7	0.748	0.701	0.45	0.492	0.43	0.724	0.75	0.778	0.794	0.706	0.667	0.735	0.673	0.692	0.738
NCI-H1437	0.728	0.78	0.85	0.857	0.895	0.77	0.625	0.663	0.57	0.407	0.383	0.413	0.402	0.387	0.563	0.576	0.634	0.616	0.547
NCI-H1650	0.874	0.88	0.69	0.656	0.569	0.425	0.9	0.881	0.854	0.389	0.438	–	0.453	0.347	0.381	0.459	0.431	0.355	0.508
NCI-H1651	0.902	0.789	0.471	0.543	0.579	0.566	0.181	0.181	0.187	0.703	0.694	0.906	0.588	0.676	0.594	0.351	0.591	0.619	0.613
NCI-H1666	0.637	0.598	0.335	1.1	1.05	0.976	0.73	0.78	0.823	0.579	0.63	0.578	0.584	0.572	0.771	0.567	0.778	0.746	0.652
NCI-H1734	1.06	0.895	0.523	0.829	0.724	0.538	0.586	0.509	0.304	0.28	0.271	0.276	0.286	0.254	0.545	0.497	0.488	0.485	0.534
NCI-H1755	1.02	1.04	1.02	0.709	0.801	0.674	0.934	0.809	0.883	0.626	0.596	0.6	0.591	0.555	0.692	0.739	0.686	0.701	0.727
NCI-H1793	0.57	0.749	0.861	0.807	1.02	0.654	0.88	1.02	0.508	0.343	0.346	0.368	0.393	0.324	0.518	0.459	0.549	0.494	0.487
NCI-H1915	1.05	1	0.845	0.559	0.565	0.45	0.286	0.236	0.145	0.378	0.465	0.426	0.418	0.407	0.272	0.275	0.276	0.262	0.256
NCI-H1944	0.865	0.827	0.936	0.609	0.566	0.595	0.434	0.414	0.482	0.239	0.264	0.264	0.26	0.27	0.492	0.43	0.436	0.392	0.44
NCI-H1975	0.894	0.881	0.433	0.708	0.816	0.554	0.81	0.883	0.35	0.7	0.841	0.839	0.726	0.747	0.407	0.39	0.43	0.404	0.464
NCI-H1993	0.71	0.765	0.856	0.921	0.844	0.727	1.04	0.911	1.04	0.54	0.582	0.572	0.529	0.561	0.558	0.634	0.663	0.611	0.64
NCI-H2009	0.952	1.03	0.678	0.724	0.95	0.688	0.721	0.724	0.611	0.821	0.715	0.772	0.692	0.653	0.337	0.457	0.409	0.349	0.408
NCI-H2023	0.809	0.758	0.486	0.613	0.667	0.343	0.51	0.504	0.312	0.326	0.394	0.441	0.387	0.321	0.229	0.211	0.23	0.209	0.219
NCI-H2085	0.764	0.727	0.48	0.772	0.857	0.483	0.742	0.727	0.487	0.697	0.853	0.836	0.878	0.807	0.577	0.519	0.592	0.556	0.534

Reference: the supplement of paper PMC10307832
